Assay results published in ChEMBL document CHEMBL1152417, “The identification and optimisation of novel and selective diamide neuropeptide Y Y2 receptor antagonists” (Bioorg Med Chem Lett, 2009).

Test system: Brain
Assay: Drug level in rat brain assessed as tissue binding
Type: ADME, tissue-based

| SMILES | Brain tissue binding (percent bound) |
| --- | --- |
| O=C(Cc1ccccc1)Nc1ccc(N2CCN(C(=O)c3ccccc3)CC2)c(Cl)c1 | 99% |
| CC(C)(C(=O)Nc1ccc(N2CCN(C(=O)c3ccccc3)CC2)c(Cl)c1)c1ccccc1 | 99.5% |
| O=C(Nc1ccc(N2CCN(C(=O)c3ccccc3)CC2)c(Cl)c1)C(c1ccccc1)c1ccccn1 (racemic) | 99.7% |
